The values below come from patent US12447119B2, “Oral care composition” (SUNSTAR AMERICAS, INC., priority 2019, dated 2025).

The nature of this series: Solubility of surfactant in an oral care composition (statement in Experiment 4). The note with it: compared with a monoglyceride and diglyceride mixture. It is filed as physicochemical. From the text: The results of Experiment 4 are shown in FIG. 5 (represented by Table 6 below), which measures the toothpaste concentration that causes 50% cell hemolysis. […] Glyceryl monostearate is harder to dissolve in an oral care composition than monoglyceride and digylceride mixtures.

Take `CCCCCCCCCCCCCCCCCC(=O)OCC(O)CO` (stereo not shown) [Glyceryl monostearate, glyceryl monostearate]: the “solubility of the surfactant in an oral care composition” value is “less soluble than a monoglyceride and diglyceride mixture”.
